Assay results taken from PMC10952572, “Improved PIEZO1 agonism through 4‐benzoic acid modification of Yoda1” (British Journal of Pharmacology, 2023).

Columns and labels:
mPIEZO1 = biological target: T1, mPIEZO1 (Mus musculus, UniProt E2JF22); assay: Intracellular Ca2+ measurement (Fura-2) in mPIEZO1-TREx cells; assay type: cell-based; conditions: for Peak ΔCa2+i (ΔF340/380), median fold difference compared to Yoda1: 10 μM compound, mPIEZO1-TREx cells, paired with 10 μM Yoda1; for Ca2+ response (agonist effect): 10 μM, cells overexpressing mPIEZO1, compared with Yoda1; for EC50: overexpressed mouse PIEZO1, calcium assays
T1 construct: expressed in transfected cells
Text: HEK T‐REx™ cells that constitutively overexpress murine PIEZO1 were generated as previously described (Blythe et al., [2019]). pcDNA3 mouse PIEZO1 (mPIEZO1) IRES green fluorescent protein (GFP), a gift from Ardem Patapoutian (Coste et al., [2010]), was used as a template to clone the mPIEZO1 coding sequence into pcDNA4/TO. Overlapping mPIEZO1 (forward primer 5′‐[…]‐3′ and reverse primer 5′‐[…]‐3′) and pcDNA4/TO (forward primer 5′‐[…]‐3′ and reverse primer 5′‐[…]‐3′) PCR products were assembled using Gibson Assembly (New England Biolabs). […] HEK T‐REx™ 293 cells were transfected with pcDNA4/TO‐mPIEZO1 using Lipofectamine 2000 (Invitrogen) and treated with 200 μg·ml^−1 zeocin to select stably transfected cells. Individual clones were isolated and analysed for expression using Yoda1 and intracellular Ca^2+ measurements. These cells are referred to as mPIEZO1‐TREx.
HEK 293‐TREx cells and their stably transfected derivatives or transiently transfected HEK 293 or HeLa cells were seeded at a density of 7.5 × 10^4 cells per well into poly‐D‐lysine‐coated 96‐well plates. The plates were either commercially pre‐coated with poly‐D‐lysine (Greiner Bio‐One #655946) or (Greiner Bio‐One #655090) were coated in‐house with 35 μl of a 10 μg·ml^−1 poly‐D‐lysine (Bio‐Techne, Cultrex # 3439‐100‐01) in sterile deionised water per well for at least 24 h and rinsed three times with 100 μl per well sterile D‐PBS before addition of cells. HUVECs were seeded into tissue culture‐treated 96‐well plates (Greiner Bio‐One #655090) at a density of either 2.5 × 10^4 cells 24 h before experimentation or 1.25 × 10^4 cells 48 h before experimentation. Cells were incubated with 2 μM Fura‐2‐AM (Molecular Probes™) in the presence of 0.01% (wt./vol.) pluronic F127 (Sigma‐Aldrich #P2443) in standard bath solution (SBS) for 1 h at 37°C. Cells were washed with SBS for 30 min at room temperature. Alternatively, if inhibitors were being tested, these were added at this time, immediately following a wash in SBS. (−)‐Englerin A (Akbulut et al., [2015]) was used in SBS containing 0.01% pluronic acid as a dispersing agent to minimise aggregation of compound. Unless otherwise stated, the final concentration of DMSO was 0.2% (vol./vol). Working 2000× stock solutions of test compounds were freshly made in DMSO and diluted 1000‐fold in SBS during the 30 min SBS wash/inhibitor pre‐incubation period to obtain 2× solutions for injection. When testing the highest concentration of Yoda1, KC159 and KC289 (30 μM), the final DMSO concentration was 0.6% (vol./vol.). Measurements were made at room temperature on a 96‐well fluorescence plate reader (FlexStation 3, Molecular Devices, Sunnyvale, CA, USA) controlled by SoftMax Pro software v7.0.3. Recipient wells containing 80 μl SBS/0.2% (vol./vol.) DMSO vehicle or inhibitor compound received 80 μl 2× compound at an injection rate of 1 μl·s^−1, and the pipette introduced liquids from a height setting of 70 μl. No trituration was performed. For recordings using Fura‐2, the change in intracellular Ca was indicated as the ratio of Fura‐2 emission (510 nm) intensities at 340 and 380 nm excitation. Photomultipliers were set to medium sensitivity. SBS contained 130 mM NaCl, 5 mM KCl, 8 mM D‐glucose, 10 mM HEPES, 1.2 mM MgCl2 and 1.5 mM CaCl2, and the pH was adjusted to 7.4 with NaOH. The solution was filtered through a 0.2 μm bottle‐top filter prior to use and handled aseptically thereafter.
For intracellular Ca^2+ (Ca^2+i) measurements, technical intra‐experiment replicates were used to improve confidence in the data. Analysis of individual experiments was performed to obtain mean ± SEM values. For collated analysis of independent experiments, where normal distributions were not evidenced by Shapiro–Wilk normality tests, non‐parametric distributions were assumed, and therefore, median values were used. […]

[1] = In-house aqueous solubility in universal aqueous buffer; assay type: physicochemical; conditions: for Solubility in aqueous buffer relative to Yoda1: universal aqueous buffer pH 7.4
Experimental: Standard curves for each test compound were constructed. DMSO‐dissolved test compounds were added to universal aqueous buffer (45 mM ethanolamine, 45 mM KH2PO4 and 45 mM KOAc, pH 7.4): acetonitrile 80:20 (298.5 μl) at a final DMSO concentration of 0.5%. Samples were incubated at room temperature with 300 rpm shaking for 30 min; 200 μl of each well was transferred to a 96‐well polypropylene V‐bottomed collection plate, and absorbance readings were taken at 250–500 nm in 10 nm increments. Thus, the λ max was identified at which concentration versus absorbance was plotted to provide standard curves.
After filtration through hydrophilic PTFE 0.2 μm filters, 160 μl sample was transferred to wells of a 96‐well polypropylene V‐bottomed collection plate and 40 μl acetonitrile was added to each well. Absorbance readings were taken at 250–500 nm in 10 nm increments. Solubility was calculated at the appropriate λ max with reference to the standard curve.

Stability in plasma = assay type: in vitro ADME; conditions: mouse plasma, 1 μM, over 2 h
Experimental: Pooled heparinised mouse plasma was warmed to 37°C for 10 min, mixed and cleared of aggregated protein by centrifugation. Aliquots of the clear supernatant were transferred into the assay plate. Following equilibration to 37°C, biotransformation was initiated by adding and mixing of 1 μM compound solution in a final incubation volume of 300 μl; 25 μl aliquots were removed at 0, 5, 15, 30, 60 and 120 min and quenched in 300 μl ice‐cold acetonitrile containing internal standard. After storing the samples at −20°C for a minimum of 4 h, the protein in the samples was precipitated by centrifugation at 4°C, and the supernatants were analysed by LC–MS/MS to quantify the % input test compound remaining.

T1 sequence (E2JF22 whole entry): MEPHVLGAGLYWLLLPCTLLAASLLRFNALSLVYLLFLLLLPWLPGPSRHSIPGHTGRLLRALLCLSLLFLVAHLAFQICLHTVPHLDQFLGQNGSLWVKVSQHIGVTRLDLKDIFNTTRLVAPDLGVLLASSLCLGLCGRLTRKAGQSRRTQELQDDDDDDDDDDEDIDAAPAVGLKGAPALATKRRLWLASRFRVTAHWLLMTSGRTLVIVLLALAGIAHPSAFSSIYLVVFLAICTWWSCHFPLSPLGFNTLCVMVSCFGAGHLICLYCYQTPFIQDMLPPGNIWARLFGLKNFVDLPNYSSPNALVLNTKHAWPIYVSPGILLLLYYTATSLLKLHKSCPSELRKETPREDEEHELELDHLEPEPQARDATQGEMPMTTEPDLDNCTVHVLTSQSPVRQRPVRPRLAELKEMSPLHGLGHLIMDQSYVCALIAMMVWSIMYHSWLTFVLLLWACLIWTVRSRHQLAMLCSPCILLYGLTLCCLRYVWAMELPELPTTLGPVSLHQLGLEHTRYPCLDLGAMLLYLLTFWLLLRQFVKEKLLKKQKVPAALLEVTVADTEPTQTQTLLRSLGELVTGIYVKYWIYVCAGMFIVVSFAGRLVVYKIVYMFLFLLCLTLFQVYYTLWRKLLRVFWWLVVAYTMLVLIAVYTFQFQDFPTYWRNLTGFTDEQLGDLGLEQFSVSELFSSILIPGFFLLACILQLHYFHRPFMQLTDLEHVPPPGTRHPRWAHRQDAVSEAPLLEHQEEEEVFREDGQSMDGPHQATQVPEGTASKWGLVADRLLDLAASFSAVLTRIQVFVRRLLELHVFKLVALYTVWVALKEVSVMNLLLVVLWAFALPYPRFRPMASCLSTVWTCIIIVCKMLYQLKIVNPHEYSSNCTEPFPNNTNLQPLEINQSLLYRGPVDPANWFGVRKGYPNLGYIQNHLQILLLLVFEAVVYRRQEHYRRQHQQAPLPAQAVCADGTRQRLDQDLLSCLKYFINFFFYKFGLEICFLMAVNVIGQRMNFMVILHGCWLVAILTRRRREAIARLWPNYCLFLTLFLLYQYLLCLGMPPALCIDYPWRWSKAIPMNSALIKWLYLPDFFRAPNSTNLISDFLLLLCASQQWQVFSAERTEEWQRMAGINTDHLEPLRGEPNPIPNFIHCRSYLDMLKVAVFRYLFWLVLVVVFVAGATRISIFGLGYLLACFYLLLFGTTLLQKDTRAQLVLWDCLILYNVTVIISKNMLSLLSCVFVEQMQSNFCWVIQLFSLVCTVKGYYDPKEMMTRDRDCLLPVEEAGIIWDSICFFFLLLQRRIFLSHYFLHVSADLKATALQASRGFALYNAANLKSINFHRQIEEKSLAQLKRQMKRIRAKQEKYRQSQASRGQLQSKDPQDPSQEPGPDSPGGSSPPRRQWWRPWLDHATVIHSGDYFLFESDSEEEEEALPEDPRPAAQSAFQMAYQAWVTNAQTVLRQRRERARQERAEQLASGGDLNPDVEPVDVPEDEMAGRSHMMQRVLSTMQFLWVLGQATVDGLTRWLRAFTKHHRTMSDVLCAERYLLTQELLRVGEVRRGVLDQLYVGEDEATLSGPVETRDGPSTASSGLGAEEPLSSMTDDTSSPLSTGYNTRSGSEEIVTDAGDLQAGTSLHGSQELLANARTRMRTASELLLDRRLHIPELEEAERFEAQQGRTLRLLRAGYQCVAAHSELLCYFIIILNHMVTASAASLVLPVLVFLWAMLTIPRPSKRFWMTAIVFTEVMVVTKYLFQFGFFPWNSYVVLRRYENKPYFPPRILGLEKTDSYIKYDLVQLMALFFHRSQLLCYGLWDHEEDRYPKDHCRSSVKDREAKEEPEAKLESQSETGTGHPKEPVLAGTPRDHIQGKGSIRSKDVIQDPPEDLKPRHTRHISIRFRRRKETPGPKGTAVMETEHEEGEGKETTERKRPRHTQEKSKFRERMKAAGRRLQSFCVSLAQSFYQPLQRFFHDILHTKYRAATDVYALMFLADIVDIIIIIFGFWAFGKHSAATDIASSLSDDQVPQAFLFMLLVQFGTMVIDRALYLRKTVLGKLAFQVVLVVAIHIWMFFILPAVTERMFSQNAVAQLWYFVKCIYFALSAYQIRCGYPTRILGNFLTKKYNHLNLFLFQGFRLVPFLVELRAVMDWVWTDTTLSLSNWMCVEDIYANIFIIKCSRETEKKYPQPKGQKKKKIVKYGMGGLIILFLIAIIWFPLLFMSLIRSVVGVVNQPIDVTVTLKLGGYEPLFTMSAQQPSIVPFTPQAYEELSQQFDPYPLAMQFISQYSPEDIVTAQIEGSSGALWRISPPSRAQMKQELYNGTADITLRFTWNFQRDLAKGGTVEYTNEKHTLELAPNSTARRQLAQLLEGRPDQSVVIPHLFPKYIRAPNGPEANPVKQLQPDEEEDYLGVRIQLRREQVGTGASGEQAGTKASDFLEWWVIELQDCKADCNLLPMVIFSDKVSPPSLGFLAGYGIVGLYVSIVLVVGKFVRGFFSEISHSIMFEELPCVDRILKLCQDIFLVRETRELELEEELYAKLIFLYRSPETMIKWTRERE

| solubility at 1.5 h ([1]; universal aqueous buffer, pH 7.4, aqueous buffer, kinetic from dmso stock, lower limit of detection 0.1 µM, read-out: Estimated solubility in universal aqueous buffer) [µM] | Compound | Peak ΔCa2+i (ΔF340/380), median fold difference compared to Yoda1 (mPIEZO1) | Ca2+ response (agonist effect) (mPIEZO1) | Potency relative to Yoda1 (mPIEZO1; mPIEZO1, from EC50 values) | EC50 (mPIEZO1) [nM] | Solubility in aqueous buffer relative to Yoda1 [1] | Plasma stability (Stability in plasma) |
| --- | --- | --- | --- | --- | --- | --- | --- |
| – | O=C([O-])c1ccc(-c2nnc(SCc3c(Cl)cccc3Cl)s2)cc1.[K+] [KC289] | +1.2 fold | larger responses than Yoda1 | approximately four times more potent than Yoda1 | 150 | at least 160 times | good stability over 2 h |
| – | O=C(O)c1ccc(-c2nnc(SCc3c(Cl)cccc3Cl)s2)cc1 [KC159] | +1.1 fold | larger responses than Yoda1 | – | 280 | at least 160 times | good stability over 2 h |
| < 0.1 | Clc1cccc(Cl)c1CSc1nnc(-c2cnccn2)s1 [Yoda1, 2‐[5‐[[(2,6‐dichlorophenyl)methyl]thio]‐1,3,4‐thiadiazol‐2‐yl]pyrazine] | – | – | – | 600 | – | good stability over 2 h |
| – | O=C(O)c1ccccc1-c1nnc(SCc2c(Cl)cccc2Cl)s1 [KC157] | −70.6 fold | inactive | – | – | – | – |
